pIC50: −log10 of the molar value. Where a name gives a salt, the structure may show the parent alone.
Target: T1, 5-HT4 receptor (Cavia porcellus, UniProt O70528)
T1 construct: Longitudinal muscle-myenteric plexus preparations, approximately 3 cm long, are obtained from the distal colon region; from tissue; host or cells: guinea-pig distal colon, longitudinal muscle-myenteric plexus preparation
Assay: Guinea pig colon 5-HT4 receptor antagonist activity (longitudinal muscle-myenteric plexus, 5-HT evoked contraction)
Details: -log concentration of antagonist which reduces the 5-HT evoked contraction by 50%; guinea-pig distal colon; methiothepin 10^-7 M and granisetron 10^-6 M present
Description: 5-HT4 RECEPTOR ANTAGONIST ACTIVITY
Male guinea-pigs, weighing 250-400 g are used. Longitudinal muscle-myenteric plexus preparations, approximately 3 cm long, are obtained from the distal colon region. These are suspended under a 0.5 g load in isolated tissue baths containing Krebs solution bubbled with 5% CO2 in O2 and maintained at 37° C. In all experiments, the Krebs solution also contains methiothepin 10^-7 M and granisetron 10^-6 M to block effects at 5-HT1, 5-HT2 and 5-HT3 receptors.
After construction of a simple concentration-response curve with 5-HT, using 30 s contact times and a 15 min dosing cycle, a concentration of 5-HT is selected so as to obtain a contraction of the muscle approximately 40-70% maximum (10^-9 M approx). The tissue is then alternately dosed every 15 min with this concentration of 5-HT and then with an approximately equi-effective concentration of the nicotine receptor stimulant, dimethylphenylpiperazinium (DMPP). After obtaining consistent responses to both 5-HT and DMPP, increasing concentrations of a putative 5-HT4 receptor antagonist are then added to the bathing solution. The effects of this compound are then determined as a percentage reduction of the contractions evoked by 5-HT or by DMPP. […] A compound which reduces the response to 5-HT but not to DMPP is believed to act as a 5-HT4 receptor antagonist.

T1 sequence (O70528 whole entry): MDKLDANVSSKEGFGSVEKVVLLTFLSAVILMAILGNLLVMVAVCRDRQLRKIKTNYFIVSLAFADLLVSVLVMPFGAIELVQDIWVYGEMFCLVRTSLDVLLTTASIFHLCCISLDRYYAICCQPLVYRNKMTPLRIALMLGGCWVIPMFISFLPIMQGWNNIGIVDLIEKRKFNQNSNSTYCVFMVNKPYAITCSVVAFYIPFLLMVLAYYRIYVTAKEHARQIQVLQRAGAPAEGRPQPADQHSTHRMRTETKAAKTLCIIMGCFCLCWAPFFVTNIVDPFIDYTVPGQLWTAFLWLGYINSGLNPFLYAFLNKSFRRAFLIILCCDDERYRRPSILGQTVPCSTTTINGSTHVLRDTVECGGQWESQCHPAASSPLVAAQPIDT

`Nc1c(Cl)cc(C(=O)OCC2CCN(CCCO)CC2)c2c1OCCO2` [Example E1, [1-(3Hydroxypropyl)-4-piperidinyl]methyl 8-amino-7-chloro-1,4-benzodioxan-5-carboxylate hydrochloride] was tested. Which pIC50 did it give?
The pIC50 was 10.20.

From patent publication US5786372A, “Heteroaryl compounds used as pharmaceuticals” (SmithKline Beecham p.l.c., priority 1992, dated 1998)
